Test results taken from US8283373B2, “Inhibitors of cytosolic phospholipase A2” (Pfizer Inc., priority 2005, dated 2012).

Key:
TXB2 = assay: Rat Whole Blood Assay (A23187-stimulated TXB2); assay type: cell-based; conditions: Rattus norvegicus; A23187 5 μM
Procedure, shortened: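 Heparinized male Sprague-Dawley rat blood pre-incubated 15 min at 37 °C with compound or DMSO, then stimulated with 5 μM (final) A23187 for 10 min at 37 °C. Stopped with 20 mM EDTA; TXB2 in methanol-extracted plasma measured by ELISA.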

[1] = system: OVA-induced pulmonary inflammation; assay: Rat antigen induced pulmonary inflammation model; assay type: in vivo
Protocol: The efficacy of the compound of Example 10 was evaluated in a Brown Norway rat model in which ovalbumin (OVA)-sensitized animals were challenged via the airways with an aerosol of ovalbumin (OVA) on days 1 and 2. OVA sensitized rats were challenged via aerosol on day 1 and day 2. The compound of Example 10 was administered at 30 mg/kg PO BID 1 hour prior to challenge and 10 hours after challenge over the 2 day challenge period. Dexamethasone was administered at 3 mg/kg IP 1 hour prior to challenge on day 1 and day 2. Animals were sacrificed on day 3 and bronchoalveolar cavities ravaged for analysis of cellular influx.

O=C(O)c1ccc(CCCc2c(CCNS(=O)(=O)Cc3ccccc3C(F)(F)F)n(C(c3ccccc3)c3ccccc3)c3ccc(Cl)cc23)cc1 [Example 10, 4-(3-{5-chloro-1-(diphenylmethyl)-2-[2-({[2-(trifluoromethyl)benzyl]sulfonyl}amino)ethyl]-1H-indol-3-yl}propyl)benzoic acid]
IC50 (TXB2): 0.02 µM | influx of lymphocytes or neutrophils ([1]; 30 mg/kg PO BID): no significant effect | total numbers of inflammatory cells within the BALF ([1]; 30 mg/kg PO BID): statistically significantly attenuated | Bronchoalveolar lavage fluid (BALF) eosinophil influx ([1]; 30 mg/kg PO BID over 2 day challenge, 8 out of 8 independent studies): statistically significantly inhibited
